The results in this text go back to ChEMBL document CHEMBL1135029, “Novel dihydropyrazine analogues as NPY antagonists” (Bioorg Med Chem Lett, 2002).

By IC50 is commonly meant the midpoint of a concentration-inhibition curve. A high value points to weaker potency.

Test [1] concerns the target T1, Neuropeptide Y receptor type 1 (Homo sapiens, UniProt P25929).
T1 sequence (P25929 whole entry): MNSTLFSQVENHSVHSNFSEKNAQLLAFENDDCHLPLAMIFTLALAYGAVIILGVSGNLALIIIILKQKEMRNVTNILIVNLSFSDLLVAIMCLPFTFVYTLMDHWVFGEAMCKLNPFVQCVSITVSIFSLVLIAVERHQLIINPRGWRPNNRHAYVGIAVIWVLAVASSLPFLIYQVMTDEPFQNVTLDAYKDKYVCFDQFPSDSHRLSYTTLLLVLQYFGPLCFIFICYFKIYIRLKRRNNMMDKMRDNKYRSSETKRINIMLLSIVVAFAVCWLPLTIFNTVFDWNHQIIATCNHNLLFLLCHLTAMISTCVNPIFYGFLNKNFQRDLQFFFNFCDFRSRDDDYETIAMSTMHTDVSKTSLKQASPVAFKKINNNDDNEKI
The test can be described thus: Inhibition of I-PYY binding to Nueopeptide Y1 receptor expressed in human neuroblastoma SK-N-MC cells. It counts as cell-based.

Test [2] addresses T1, Neuropeptide Y receptor type 1. Put plainly: Binding affinity against Neuropeptide Y receptor type 1 using I-PYY as a radioligand in human neuroblastoma SK-N-MC cells. Format: cell-based.

Bounds are passed on as bounds.

In the case of `COC(=O)C1=C(C)N=C(C)/C(=C(/O)OC)C1c1cccc(NC(=O)NCCCN2CCN(C3CCCCC3)CC2)c1` (stereo not drawn), in test [1], the half-maximal inhibitory concentration (IC50) is 176 nM.

In the case of `COC(=O)C1=C(C)N=C(C)/C(=C(/O)OC)C1c1cccc(N/C(=N/CCCN2CCC(C(C)(C)C)CC2)NC#N)c1` (stereo not drawn), in test [1], the IC50 was below 1 nM.

For the compound `COC(=O)C1=C(C)N=C(C)/C(=C(/O)OC)N1c1cccc(N/C(S)=N/CCCN2CCN(C3CCCCC3)CC2)c1`, the IC50 in test [1] is above 1000 nM.

For `COC(=O)C1=C(C)N=C(C)/C(=C(/O)OC)N1c1cccc(NC(=O)NCCCN2CCN(C3CCCCC3)CC2)c1`, the half-inhibitory concentration (IC50) in test [1] is 434 nM.

`COC(=O)C1=C(C)N=C(C)/C(=C(/O)OC)C1c1cccc(N/C(S)=N/CCCN2CCN(C3CCCCC3)CC2)c1` (stereo not drawn) had a 50% inhibitory concentration (IC50) in test [1] of 132 nM.

In test [1], `COC(=O)C1=C(C)N=C(C)/C(=C(/O)OC)C1c1cccc(N/C(=N/CCCN2CCC(c3ccccc3)CC2)NC#N)c1` (stereo not drawn) showed an IC50 of 5.4 nM.

`COC(=O)C1=C(C)N=C(C)/C(=C(/O)OC)N1c1cccc(N/C(S)=N/CCCN2CCC(C(C)(C)C)CC2)c1` displayed an IC50 in test [1] above 1000 nM.

In turn, `COC(=O)C1=C(C)N=C(C)/C(=C(/O)OC)N1c1cccc(N/C(S)=N/CCCN2CCC(c3cccc(OC)c3)CC2)c1` yielded a concentration for half-maximal inhibition (IC50) in test [1] of 945 nM.

Take `COC(=O)C1=C(C)N=C(C)/C(=C(/O)OC)N1c1cccc(NC(=O)NCCCN2CCC(c3cccc(OC)c3)CC2)c1`: the IC50 in test [1] was found to be 554 nM.

The compound `COC(=O)C1=C(C)N=C(C)/C(=C(/O)OC)C1c1cccc(N/C(S)=N/CCCN2CCC(c3cccc(OC)c3)CC2)c1` (stereo not drawn) showed a half-inhibitory concentration (IC50) in test [1] of 12.8 nM.

`COC(=O)C1=C(C)N=C(C)/C(=C(/O)OC)N1c1cccc(N/C(=N/CCCN2CCC(c3ccccc3)CC2)NC#N)c1` displayed an IC50 in test [1] of 268 nM.

Consider `COC(=O)C1=C(C)N=C(C)/C(=C(/O)OC)C1c1cccc(NC(=O)NCCCN2CCC(c3cccc(OC)c3)CC2)c1` (stereo not drawn), for which the half-inhibitory concentration (IC50) in test [2] was 4.2 nM.

On to `COC(=O)C1=C(C)N=C(C)/C(=C(/O)OC)N1c1cccc(N/C(=N/CCCN2CCC(C(C)(C)C)CC2)NC#N)c1`, for which, in test [1], the IC50 was 231 nM.
